Results published in patent US20230017045A1, “PYRIDINE AND PYRIMIDINE CARBOXYLATE HERBICIDES AND METHODS OF USE THEREOF” (Dow AgroSciences LLC, priority 2017, published 2023).

Each compound was assayed on test plant species (assay: Post-emergent herbicidal activity test (greenhouse, foliar spray, visual growth reduction)). Conditions: post-emergence, 336 h, ECHCG: barnyardgrass (Echinochloa crus-galli), 140 g ai/ha, 14 days after application, read-out: Visual Growth Reduction (%) 14 Days After Application, ECHCG.
Assay type: in vivo
Summary of the method: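 Visual scoring 14 d after treatment (0 = no injury, 100 = complete control) against nontreated and solvent-blank plants gave percent growth reduction. Foliar application used a track sprayer delivering 187 L/ha to seedlings at first or second true leaf stage, grown at 23–29 °C day, ~15 h photoperiod.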

Question: For COC(=O)c1nc(-c2ccc3ccsc3c2F)c(Cl)cc1Cl [F330, Methyl 3,5-dichloro-6-(7-fluorobenzo[b]thiophen-6-yl)picolinate], which pest or weed control at 140 g/ha is on record?
Answer: 0 to 29%

Question: With O=C(O)c1nc(-c2ccc(C(F)(F)F)c(C(F)F)c2F)c(F)cc1Cl [F294, 3-Chloro-6-(3-(difluoromethyl)-2-fluoro-4-(trifluoromethyl)phenyl)-5-fluoropicolinic acid] as the compound, how does the pest or weed control at 140 g/ha read?
Answer: 60 to 74%

Question: With COC(=O)c1nc(-c2ccc(OS(C)(=O)=O)cc2F)c(F)cc1Cl [F343] as the compound, how does the pest or weed control at 140 g/ha read?
Answer: 85 to 94%

Same assay, conditions: post-emergence, 336 h, IPOHE: ivy-leaf morning glory (Ipomoea hederacea), 140 g ai/ha, 14 days after application, read-out: Visual Growth Reduction (%) 14 Days After Application, IPOHE

Question: COC(=O)c1nc(-c2ccc3ccsc3c2F)c(Cl)cc1Cl [F330, Methyl 3,5-dichloro-6-(7-fluorobenzo[b]thiophen-6-yl)picolinate] was tested. Which pest or weed control at 140 g/ha did it give?
Answer: 0 to 29%

Question: How did the pest or weed control at 140 g/ha turn out when O=C(O)c1nc(-c2ccc(C(F)(F)F)c(C(F)F)c2F)c(F)cc1Cl [F294, 3-Chloro-6-(3-(difluoromethyl)-2-fluoro-4-(trifluoromethyl)phenyl)-5-fluoropicolinic acid] was run?
Answer: 95 to 100%

Question: COC(=O)c1nc(-c2ccc(OS(C)(=O)=O)cc2F)c(F)cc1Cl [F343] was tested. Which pest or weed control at 140 g/ha did it give?
Answer: 95 to 100%

Same assay, conditions: post-emergence, 336 h, KCHSC: kochia (Bassia scoparia), 140 g ai/ha, 14 days after application, read-out: Visual Growth Reduction (%) 14 Days After Application, KCHSC

Question: Which pest or weed control at 140 g/ha does the source give for COC(=O)c1nc(-c2ccc3ccsc3c2F)c(Cl)cc1Cl [F330, Methyl 3,5-dichloro-6-(7-fluorobenzo[b]thiophen-6-yl)picolinate] here?
Answer: 0 to 29%

Question: O=C(O)c1nc(-c2ccc(C(F)(F)F)c(C(F)F)c2F)c(F)cc1Cl [F294, 3-Chloro-6-(3-(difluoromethyl)-2-fluoro-4-(trifluoromethyl)phenyl)-5-fluoropicolinic acid] was tested. Which pest or weed control at 140 g/ha did it give?
Answer: 75 to 84%

Question: Which pest or weed control at 140 g/ha does the source give for COC(=O)c1nc(-c2ccc(OS(C)(=O)=O)cc2F)c(F)cc1Cl [F343] here?
Answer: 85 to 94%

Same assay, conditions: post-emergence, 336 h, ORYSA: rice (Oryza sativa), 140 g ai/ha, 14 days after application, read-out: Visual Growth Reduction (%) 14 Days After Application, ORYSA

Question: With COC(=O)c1nc(-c2ccc3ccsc3c2F)c(Cl)cc1Cl [F330, Methyl 3,5-dichloro-6-(7-fluorobenzo[b]thiophen-6-yl)picolinate] as the compound, how does the pest or weed control at 140 g/ha read?
Answer: 0 to 29%

Question: How did the pest or weed control at 140 g/ha turn out when O=C(O)c1nc(-c2ccc(C(F)(F)F)c(C(F)F)c2F)c(F)cc1Cl [F294, 3-Chloro-6-(3-(difluoromethyl)-2-fluoro-4-(trifluoromethyl)phenyl)-5-fluoropicolinic acid] was run?
Answer: 0 to 29%

Question: For COC(=O)c1nc(-c2ccc(OS(C)(=O)=O)cc2F)c(F)cc1Cl [F343], which pest or weed control at 140 g/ha is on record?
Answer: 30 to 44%

Same assay, conditions: post-emergence, 336 h, SETFA: giant foxtail (Setaria faberi), 140 g ai/ha, 14 days after application, read-out: Visual Growth Reduction (%) 14 Days After Application, SETFA

Question: COC(=O)c1nc(-c2ccc3ccsc3c2F)c(Cl)cc1Cl [F330, Methyl 3,5-dichloro-6-(7-fluorobenzo[b]thiophen-6-yl)picolinate] was tested. Which pest or weed control at 140 g/ha did it give?
Answer: 0 to 29%

Question: How did the pest or weed control at 140 g/ha turn out when O=C(O)c1nc(-c2ccc(C(F)(F)F)c(C(F)F)c2F)c(F)cc1Cl [F294, 3-Chloro-6-(3-(difluoromethyl)-2-fluoro-4-(trifluoromethyl)phenyl)-5-fluoropicolinic acid] was run?
Answer: 85 to 94%

Question: COC(=O)c1nc(-c2ccc(OS(C)(=O)=O)cc2F)c(F)cc1Cl [F343] was tested. Which pest or weed control at 140 g/ha did it give?
Answer: 85 to 94%

Same assay, conditions: post-emergence, 336 h, SORVU: grain sorghum (Sorghum vulgare), 140 g ai/ha, 14 days after application, read-out: Visual Growth Reduction (%) 14 Days After Application, SORVU

Question: For COC(=O)c1nc(-c2ccc3ccsc3c2F)c(Cl)cc1Cl [F330, Methyl 3,5-dichloro-6-(7-fluorobenzo[b]thiophen-6-yl)picolinate], which pest or weed control at 140 g/ha is on record?
Answer: 0 to 29%

Question: Which pest or weed control at 140 g/ha does the source give for O=C(O)c1nc(-c2ccc(C(F)(F)F)c(C(F)F)c2F)c(F)cc1Cl [F294, 3-Chloro-6-(3-(difluoromethyl)-2-fluoro-4-(trifluoromethyl)phenyl)-5-fluoropicolinic acid] here?
Answer: 95 to 100%

Question: With COC(=O)c1nc(-c2ccc(OS(C)(=O)=O)cc2F)c(F)cc1Cl [F343] as the compound, how does the pest or weed control at 140 g/ha read?
Answer: 95 to 100%

Same assay, conditions: post-emergence, 336 h, STEME: common chickweed (Stellaria media), 140 g ai/ha, 14 days after application, read-out: Visual Growth Reduction (%) 14 Days After Application, STEME

Question: Which pest or weed control at 140 g/ha does the source give for COC(=O)c1nc(-c2ccc3ccsc3c2F)c(Cl)cc1Cl [F330, Methyl 3,5-dichloro-6-(7-fluorobenzo[b]thiophen-6-yl)picolinate] here?
Answer: 0 to 29%

Question: Which pest or weed control at 140 g/ha does the source give for O=C(O)c1nc(-c2ccc(C(F)(F)F)c(C(F)F)c2F)c(F)cc1Cl [F294, 3-Chloro-6-(3-(difluoromethyl)-2-fluoro-4-(trifluoromethyl)phenyl)-5-fluoropicolinic acid] here?
Answer: 0 to 29%

Question: Which pest or weed control at 140 g/ha does the source give for COC(=O)c1nc(-c2ccc(OS(C)(=O)=O)cc2F)c(F)cc1Cl [F343] here?
Answer: 0 to 29%

Same assay, conditions: post-emergence, 336 h, TRZAS: wheat, spring (Triticum aestivum), 140 g ai/ha, 14 days after application, read-out: Visual Growth Reduction (%) 14 Days After Application, TRZAS

Question: Which pest or weed control at 140 g/ha does the source give for COC(=O)c1nc(-c2ccc3ccsc3c2F)c(Cl)cc1Cl [F330, Methyl 3,5-dichloro-6-(7-fluorobenzo[b]thiophen-6-yl)picolinate] here?
Answer: 0 to 29%

Question: O=C(O)c1nc(-c2ccc(C(F)(F)F)c(C(F)F)c2F)c(F)cc1Cl [F294, 3-Chloro-6-(3-(difluoromethyl)-2-fluoro-4-(trifluoromethyl)phenyl)-5-fluoropicolinic acid] was tested. Which pest or weed control at 140 g/ha did it give?
Answer: 60 to 74%

Question: Which pest or weed control at 140 g/ha does the source give for COC(=O)c1nc(-c2ccc(OS(C)(=O)=O)cc2F)c(F)cc1Cl [F343] here?
Answer: 60 to 74%

Same assay, conditions: post-emergence, 336 h, blackgrass (Alopecurus myosuroides), 14 Days After Application, 140 g ai/ha, read-out: Visual Growth Reduction (%) ALOMY

Question: For COC(=O)c1nc(-c2ccc3ccsc3c2F)c(Cl)cc1Cl [F330, Methyl 3,5-dichloro-6-(7-fluorobenzo[b]thiophen-6-yl)picolinate], which pest or weed control at 140 g/ha is on record?
Answer: 0 to 29%

Question: O=C(O)c1nc(-c2ccc(C(F)(F)F)c(C(F)F)c2F)c(F)cc1Cl [F294, 3-Chloro-6-(3-(difluoromethyl)-2-fluoro-4-(trifluoromethyl)phenyl)-5-fluoropicolinic acid] was tested. Which pest or weed control at 140 g/ha did it give?
Answer: 75 to 84%

Question: How did the pest or weed control at 140 g/ha turn out when COC(=O)c1nc(-c2ccc(OS(C)(=O)=O)cc2F)c(F)cc1Cl [F343] was run?
Answer: 0 to 29%

Same assay, conditions: post-emergence, 336 h, canada thistle (Cirsium arvense), 14 Days After Application, 140 g ai/ha, read-out: Visual Growth Reduction (%) CIRAR

Question: For O=C(O)c1nc(-c2ccc(C(F)(F)F)c(C(F)F)c2F)c(F)cc1Cl [F294, 3-Chloro-6-(3-(difluoromethyl)-2-fluoro-4-(trifluoromethyl)phenyl)-5-fluoropicolinic acid], which pest or weed control at 140 g/ha is on record?
Answer: 75 to 84%

Question: For COC(=O)c1nc(-c2ccc(OS(C)(=O)=O)cc2F)c(F)cc1Cl [F343], which pest or weed control at 140 g/ha is on record?
Answer: 95 to 100%

Same assay, conditions: post-emergence, 336 h, crabgrass (Digitaria sanguinalis), 14 Days After Application, 140 g ai/ha, read-out: Visual Growth Reduction (%) DIGSA

Question: For COC(=O)c1nc(-c2ccc3ccsc3c2F)c(Cl)cc1Cl [F330, Methyl 3,5-dichloro-6-(7-fluorobenzo[b]thiophen-6-yl)picolinate], which pest or weed control at 140 g/ha is on record?
Answer: 0 to 29%

Question: Which pest or weed control at 140 g/ha does the source give for O=C(O)c1nc(-c2ccc(C(F)(F)F)c(C(F)F)c2F)c(F)cc1Cl [F294, 3-Chloro-6-(3-(difluoromethyl)-2-fluoro-4-(trifluoromethyl)phenyl)-5-fluoropicolinic acid] here?
Answer: 85 to 94%

Question: With COC(=O)c1nc(-c2ccc(OS(C)(=O)=O)cc2F)c(F)cc1Cl [F343] as the compound, how does the pest or weed control at 140 g/ha read?
Answer: 85 to 94%

Same assay, conditions: post-emergence, 336 h, lambsquarters (Chenopodium album), 14 Days After Application, 140 g ai/ha, read-out: Visual Growth Reduction (%) CHEAL

Question: With COC(=O)c1nc(-c2ccc3ccsc3c2F)c(Cl)cc1Cl [F330, Methyl 3,5-dichloro-6-(7-fluorobenzo[b]thiophen-6-yl)picolinate] as the compound, how does the pest or weed control at 140 g/ha read?
Answer: 0 to 29%

Question: For O=C(O)c1nc(-c2ccc(C(F)(F)F)c(C(F)F)c2F)c(F)cc1Cl [F294, 3-Chloro-6-(3-(difluoromethyl)-2-fluoro-4-(trifluoromethyl)phenyl)-5-fluoropicolinic acid], which pest or weed control at 140 g/ha is on record?
Answer: 85 to 94%

Question: Which pest or weed control at 140 g/ha does the source give for COC(=O)c1nc(-c2ccc(OS(C)(=O)=O)cc2F)c(F)cc1Cl [F343] here?
Answer: 85 to 94%

Same assay, conditions: post-emergence, 336 h, redroot pigweed (Amaranthus retroflexus), 14 Days After Application, 140 g ai/ha, read-out: Visual Growth Reduction (%) AMARE

Question: Which pest or weed control at 140 g/ha does the source give for COC(=O)c1nc(-c2ccc3ccsc3c2F)c(Cl)cc1Cl [F330, Methyl 3,5-dichloro-6-(7-fluorobenzo[b]thiophen-6-yl)picolinate] here?
Answer: 0 to 29%

Question: How did the pest or weed control at 140 g/ha turn out when O=C(O)c1nc(-c2ccc(C(F)(F)F)c(C(F)F)c2F)c(F)cc1Cl [F294, 3-Chloro-6-(3-(difluoromethyl)-2-fluoro-4-(trifluoromethyl)phenyl)-5-fluoropicolinic acid] was run?
Answer: 95 to 100%

Question: With COC(=O)c1nc(-c2ccc(OS(C)(=O)=O)cc2F)c(F)cc1Cl [F343] as the compound, how does the pest or weed control at 140 g/ha read?
Answer: 95 to 100%

Same assay, conditions: post-emergence, 336 h, wild oat (Avena fatua), 14 Days After Application, 140 g ai/ha, read-out: Visual Growth Reduction (%) AVEFA

Question: Which pest or weed control at 140 g/ha does the source give for COC(=O)c1nc(-c2ccc3ccsc3c2F)c(Cl)cc1Cl [F330, Methyl 3,5-dichloro-6-(7-fluorobenzo[b]thiophen-6-yl)picolinate] here?
Answer: 0 to 29%

Question: With O=C(O)c1nc(-c2ccc(C(F)(F)F)c(C(F)F)c2F)c(F)cc1Cl [F294, 3-Chloro-6-(3-(difluoromethyl)-2-fluoro-4-(trifluoromethyl)phenyl)-5-fluoropicolinic acid] as the compound, how does the pest or weed control at 140 g/ha read?
Answer: 60 to 74%

Question: How did the pest or weed control at 140 g/ha turn out when COC(=O)c1nc(-c2ccc(OS(C)(=O)=O)cc2F)c(F)cc1Cl [F343] was run?
Answer: 30 to 44%

Same assay, conditions: post-emergence, 336 h, yellow nutsedge (Cyperus esculentus), 14 Days After Application, 140 g ai/ha, read-out: Visual Growth Reduction (%) CYPES

Question: For COC(=O)c1nc(-c2ccc3ccsc3c2F)c(Cl)cc1Cl [F330, Methyl 3,5-dichloro-6-(7-fluorobenzo[b]thiophen-6-yl)picolinate], which pest or weed control at 140 g/ha is on record?
Answer: 30 to 44%

Question: How did the pest or weed control at 140 g/ha turn out when O=C(O)c1nc(-c2ccc(C(F)(F)F)c(C(F)F)c2F)c(F)cc1Cl [F294, 3-Chloro-6-(3-(difluoromethyl)-2-fluoro-4-(trifluoromethyl)phenyl)-5-fluoropicolinic acid] was run?
Answer: 0 to 29%

Question: How did the pest or weed control at 140 g/ha turn out when COC(=O)c1nc(-c2ccc(OS(C)(=O)=O)cc2F)c(F)cc1Cl [F343] was run?
Answer: 30 to 44%
